Measured values as given in article PMC11434100, “Biomimetic Metal–Organic Framework Gated Nanoplatform for Sonodynamic Therapy against Extensively Drug Resistant Bacterial Lung Infection” (Advanced Science, 2024).
≈ marks a conversion by molar mass, not a printed value.

Key:
XDR-AB = assay: Drug sensitivity test of clinical strains (Table S2); assay type: cell-based, Acinetobacter baumannii; conditions: value in brackets; for MIC: Acinetobacter baumannii
XDR-E. coli = assay: as above; assay type: cell-based, Escherichia coli; conditions: value in brackets; for MIC: Escherichia coli
XDR-Kp = assay: as above; assay type: cell-based, Klebsiella pneumoniae; conditions: value in brackets; for MIC: Klebsiella pneumoniae
XDR-PA = assay: as above; assay type: cell-based, Pseudomonas aeruginosa; conditions: value in brackets; for MIC: Pseudomonas aeruginosa
[1] = tested on: XDR-PA (clinically isolated XDR Pseudomonas aeruginosa); assay: Minimum inhibitory concentration, broth dilution (Table S1); assay type: cell-based; conditions: CLSI guidelines, 10^5 CFU mL−1, 24 h, 37 °C, visible growth
Method: (§1) Four clinically isolated XDR strains were cultured in LB media at 37 °C with rotation (180 rpm) overnight. […] The bacterial concentration was adjusted to 10^5 CFU mL^−1.

[2] = tested on: XDR-Kp (clinically isolated XDR Klebsiella pneumoniae); assay: as above; assay type: cell-based; conditions: CLSI guidelines, 10^5 CFU mL−1, 24 h, 37 °C, visible growth
Method: as §1

[3] = tested on: XDR-E. coli (clinically isolated XDR Escherichia coli); assay: as above; assay type: cell-based; conditions: CLSI guidelines, 10^5 CFU mL−1, 24 h, 37 °C, visible growth
Method: as §1

[4] = tested on: XDR-AB (clinically isolated XDR Acinetobacter baumannii); assay: as above; assay type: cell-based; conditions: CLSI guidelines, 10^5 CFU mL−1, 24 h, 37 °C, visible growth
Method: as §1

| Compound | MIC (XDR-AB) [µg/mL] | MIC (XDR-E. coli) [µg/mL] | MIC (XDR-Kp) [µg/mL] | MIC (XDR-PA) [µg/mL] | other results |
| --- | --- | --- | --- | --- | --- |
| CO[C@@]1(NC(=O)C2SC(=C(C(N)=O)C(=O)O)S2)C(=O)N2C(C(=O)O)=C(CSc3nnnn3C)CS[C@@H]21 (some centres unmarked) [Cefotetan] | ≥ 64 | ≥ 64 | ≥ 64 | ≥ 64 | – |
| NCC[C@H](O)C(=O)N[C@@H]1C[C@H](N)[C@@H](O[C@H]2O[C@H](CN)[C@@H](O)[C@H](O)[C@H]2O)[C@H](O)[C@H]1O[C@H]1O[C@H](CO)[C@@H](O)[C@H](N)[C@H]1O [Amikacin] | ≥ 64 | ≥ 64 | ≥ 64 | ≥ 64 | – |
| Polymyxin B [PMB] | – | – | – | – | MIC (drug sensitivity test) (XDR-E. coli): 0.5 µg/mL; MIC [1]: 8 µg/mL; MIC [2]: 16 µg/mL; MIC [3]: 16 µg/mL; MIC [4]: 32 µg/mL; MIC (drug sensitivity test) (XDR-PA): 0.5 µg/mL |
| NC[C@H]1O[C@H](O[C@H]2[C@H](O)[C@@H](O[C@H]3O[C@H](CO)[C@@H](O)[C@H](N)[C@H]3O)[C@H](N)C[C@@H]2N)[C@H](N)C[C@@H]1O [Tobramycin] | ≥ 16 | ≥ 16 | ≥ 16 | ≥ 16 | – |
| Cc1nnc(SCC2=C(C(=O)O)N3C(=O)[C@@H](NC(=O)Cn4cnnn4)[C@H]3SC2)s1 [Cefazolin] | ≥ 64 | ≥ 64 | ≥ 64 | ≥ 64 | – |
| CN(C)c1cc(NC(=O)CNC(C)(C)C)c(O)c2c1C[C@H]1C[C@H]3[C@H](N(C)C)C(O)=C(C(N)=O)C(=O)[C@@]3(O)C(O)=C1C2=O [Tigecycline] | 0.38 (≈ 0.649 µM) | – | – | – | – |
| CC(C)(O/N=C(\C(=O)N[C@@H]1C(=O)N2C(C(=O)[O-])=C(C[n+]3ccccc3)CS[C@H]12)c1csc(N)n1)C(=O)O [Ceftazidime] | ≥ 64 | ≥ 64 | ≥ 64 | ≥ 64 | – |
| C[C@H]1COc2c(N3CCN(C)CC3)c(F)cc3c(=O)c(C(=O)O)cn1c23 [Levofloxacin] | ≥ 8 | 11 (≈ 30.4 µM) | ≥ 8 | ≥ 8 | – |
| CO/N=C(\C(=O)N[C@@H]1C(=O)N2C(C(=O)[O-])=C(C[N+]3(C)CCCC3)CS[C@H]12)c1csc(N)n1 [Cefepime] | ≥ 64 | ≥ 64 | ≥ 64 | ≥ 64 | – |
| CC1(C)S[C@@H]2[C@H](NC(=O)[C@H](N)c3ccccc3)C(=O)N2[C@H]1C(=O)O [Ampicillin] | ≥ 32 | ≥ 32 | ≥ 32 | ≥ 32 | – |
| C[C@@H](O)[C@H]1C(=O)N2C(C(=O)O)=C(SCCN=CN)C[C@H]12 [Imipenem] | ≥ 16 | ≥ 16 | ≥ 16 | ≥ 16 | – |
| Gentamycin | – | – | – | – | MIC (drug sensitivity test) (XDR-AB): >= 16 µg mL-1; MIC (drug sensitivity test) (XDR-E. coli): >= 16 µg mL-1; MIC (drug sensitivity test) (XDR-Kp): >= 16 µg mL-1; MIC (drug sensitivity test) (XDR-PA): >= 16 µg mL-1 |
